From PMC8359396, “Pharmacological validation of TDO as a target for Parkinson’s disease” (The Febs Journal, 2021)
pIC50: −log10 of the molar value.

Key:
[1] = system: hTDO‐overexpressing HEK‐293 cells; set-up: method as in PMID 22308364; conditions: originally reported; cited from earlier work
[2] = system: constitutively TDO‐expressing human glioblastoma A172 cell line; set-up: method as in PMID 31806638; conditions: cited from earlier work
[3] = molecular target: human IDO1‐overexpressing HEK‐293 cells (HEK‐hIDO1) (Homo sapiens, UniProt P14902); experiment: Cell-based IDO1 assay, HEK‐hIDO1 cells (NFK Green)
human IDO1‐overexpressing HEK‐293 cells (HEK‐hIDO1), sequence (P14902 whole entry): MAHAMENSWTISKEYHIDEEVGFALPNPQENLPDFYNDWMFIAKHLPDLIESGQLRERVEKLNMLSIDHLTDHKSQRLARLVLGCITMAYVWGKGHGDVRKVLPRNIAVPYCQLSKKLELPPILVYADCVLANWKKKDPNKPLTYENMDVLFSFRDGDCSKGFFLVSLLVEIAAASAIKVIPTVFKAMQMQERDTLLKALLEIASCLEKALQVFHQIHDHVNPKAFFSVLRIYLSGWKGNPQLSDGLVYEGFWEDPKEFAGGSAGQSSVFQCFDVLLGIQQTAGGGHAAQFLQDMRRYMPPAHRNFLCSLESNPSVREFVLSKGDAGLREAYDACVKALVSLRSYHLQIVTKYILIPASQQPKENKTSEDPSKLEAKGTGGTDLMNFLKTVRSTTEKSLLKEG
Protocol: Inhibition of Trp‐to‐NFK conversion in HEK‐hTDO, HEK‐hIDO1, and SW48 cells was measured with NFK Green, essentially as described previously for cancer cell lines. Cell density, incubation time, and Trp concentrations were optimized. For the TDO assay with HEK‐hTDO and SW48 cells, 200 µM Trp was added to the culture medium. No additional Trp was added for the IDO1 assay with HEK‐hIDO1 cells. The incubation time with compound was 42 h for the assays with HEK‐hTDO and HEK‐hIDO1 cells, and 18 h for the assay with SW48 cells.

[4] = In vivo pharmacokinetics and brain penetration; conditions: for bioavailability / AUC / Cmax / half-life / Kp / Kp at 5 days / Kp uu: male, C57BL/6NCrl, mouse, in vivo; for bioavailability: F (oral bioavailability); for bioavailability / AUC / Cmax / half-life / Kp uu / AUCbrain / F (oral bioavailability): mice; for AUC: AUCplasma; for Cmax: plasma; for half-life: t½; for Kp uu: Kpuu (unbound brain‐to‐plasma partition coefficient)
[5] = system: TDO activity in vivo; experiment: Trp and Kyn levels in plasma and brain of the PK studies (LC‐MS/MS); set-up: species or system male C57BL/6NCrl mice; conditions: mice
[6] = molecular target: CYP3A4 (Homo sapiens, UniProt P08684); experiment: CYP enzyme panel; format: biochemical
CYP3A4, sequence (P08684 whole entry): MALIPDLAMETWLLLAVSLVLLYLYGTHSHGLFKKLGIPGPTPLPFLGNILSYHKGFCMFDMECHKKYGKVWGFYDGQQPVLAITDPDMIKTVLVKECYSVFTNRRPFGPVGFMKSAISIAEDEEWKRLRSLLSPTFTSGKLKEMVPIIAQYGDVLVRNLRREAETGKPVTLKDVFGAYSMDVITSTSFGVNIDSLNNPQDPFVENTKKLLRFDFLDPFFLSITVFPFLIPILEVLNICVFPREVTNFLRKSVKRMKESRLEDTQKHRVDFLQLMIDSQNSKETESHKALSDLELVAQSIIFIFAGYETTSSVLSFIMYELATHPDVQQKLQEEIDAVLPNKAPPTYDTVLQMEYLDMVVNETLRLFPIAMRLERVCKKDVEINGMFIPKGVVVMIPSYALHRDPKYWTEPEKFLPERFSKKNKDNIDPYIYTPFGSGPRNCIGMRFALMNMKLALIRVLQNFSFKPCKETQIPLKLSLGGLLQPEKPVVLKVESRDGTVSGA
Description: (§1) Since TDO contains a heme center, similar to cytochrome P450 (CYP) enzymes, we evaluated the selectivity of NTRC 3531‐0 on a panel of seven CYP enzymes, that is, CYP1A2, CYP2B6, CYP2C8, CYP2C9, CYP2C19, CYP2D6, and CYP3A4.

[7] = molecular target: CYP2D6 (Homo sapiens, UniProt P10635); experiment: CYP enzyme panel; format: biochemical
CYP2D6, sequence (P10635 whole entry): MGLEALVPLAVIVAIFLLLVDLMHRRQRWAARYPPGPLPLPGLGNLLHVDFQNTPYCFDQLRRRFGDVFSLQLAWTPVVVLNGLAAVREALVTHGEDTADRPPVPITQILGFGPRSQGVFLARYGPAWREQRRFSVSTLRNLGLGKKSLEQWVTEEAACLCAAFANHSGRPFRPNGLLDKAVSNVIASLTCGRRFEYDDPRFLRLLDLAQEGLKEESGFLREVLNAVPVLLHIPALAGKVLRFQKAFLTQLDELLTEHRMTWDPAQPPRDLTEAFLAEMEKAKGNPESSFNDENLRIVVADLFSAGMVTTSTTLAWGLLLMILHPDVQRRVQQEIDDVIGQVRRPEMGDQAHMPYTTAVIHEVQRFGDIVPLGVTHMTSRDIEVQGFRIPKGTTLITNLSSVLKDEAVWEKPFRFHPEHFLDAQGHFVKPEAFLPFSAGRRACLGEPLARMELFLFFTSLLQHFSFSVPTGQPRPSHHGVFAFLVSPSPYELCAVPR
Description: as §1

[8] = molecular target: CYP2B6 (Homo sapiens, UniProt P20813); experiment: CYP enzyme panel; format: biochemical
CYP2B6, sequence (P20813 whole entry): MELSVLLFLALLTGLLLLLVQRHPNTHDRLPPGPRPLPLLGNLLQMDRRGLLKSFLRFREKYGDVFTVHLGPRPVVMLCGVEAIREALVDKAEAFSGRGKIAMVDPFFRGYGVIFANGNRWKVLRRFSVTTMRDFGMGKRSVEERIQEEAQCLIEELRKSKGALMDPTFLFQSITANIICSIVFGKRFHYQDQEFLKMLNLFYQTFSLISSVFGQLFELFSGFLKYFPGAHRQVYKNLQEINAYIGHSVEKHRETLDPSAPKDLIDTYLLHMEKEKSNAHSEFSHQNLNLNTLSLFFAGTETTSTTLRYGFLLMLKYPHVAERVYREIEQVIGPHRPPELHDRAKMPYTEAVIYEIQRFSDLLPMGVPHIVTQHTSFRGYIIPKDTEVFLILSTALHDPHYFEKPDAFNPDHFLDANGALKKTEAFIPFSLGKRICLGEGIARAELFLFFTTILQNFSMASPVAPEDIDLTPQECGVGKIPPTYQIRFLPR
Description: as §1

[9] = molecular target: CYP2C8 (Homo sapiens, UniProt P10632); experiment: CYP enzyme panel; format: biochemical
CYP2C8, sequence (P10632 whole entry): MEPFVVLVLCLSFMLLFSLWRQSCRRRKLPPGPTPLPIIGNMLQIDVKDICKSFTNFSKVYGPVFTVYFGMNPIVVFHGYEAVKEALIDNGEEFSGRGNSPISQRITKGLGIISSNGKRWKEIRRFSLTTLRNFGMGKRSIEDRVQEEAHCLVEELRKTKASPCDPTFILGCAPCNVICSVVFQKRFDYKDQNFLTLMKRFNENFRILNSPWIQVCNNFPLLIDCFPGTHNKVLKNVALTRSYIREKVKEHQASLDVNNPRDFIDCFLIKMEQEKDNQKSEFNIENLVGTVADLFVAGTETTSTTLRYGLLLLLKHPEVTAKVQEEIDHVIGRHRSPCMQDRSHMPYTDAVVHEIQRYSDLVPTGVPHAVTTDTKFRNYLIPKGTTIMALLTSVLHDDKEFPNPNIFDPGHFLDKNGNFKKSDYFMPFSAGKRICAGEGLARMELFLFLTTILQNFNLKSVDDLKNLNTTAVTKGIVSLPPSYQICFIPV
Description: as §1

[10] = molecular target: CYP2C19 (Homo sapiens, UniProt P33261); experiment: CYP enzyme panel; format: biochemical
CYP2C19, sequence (P33261 whole entry): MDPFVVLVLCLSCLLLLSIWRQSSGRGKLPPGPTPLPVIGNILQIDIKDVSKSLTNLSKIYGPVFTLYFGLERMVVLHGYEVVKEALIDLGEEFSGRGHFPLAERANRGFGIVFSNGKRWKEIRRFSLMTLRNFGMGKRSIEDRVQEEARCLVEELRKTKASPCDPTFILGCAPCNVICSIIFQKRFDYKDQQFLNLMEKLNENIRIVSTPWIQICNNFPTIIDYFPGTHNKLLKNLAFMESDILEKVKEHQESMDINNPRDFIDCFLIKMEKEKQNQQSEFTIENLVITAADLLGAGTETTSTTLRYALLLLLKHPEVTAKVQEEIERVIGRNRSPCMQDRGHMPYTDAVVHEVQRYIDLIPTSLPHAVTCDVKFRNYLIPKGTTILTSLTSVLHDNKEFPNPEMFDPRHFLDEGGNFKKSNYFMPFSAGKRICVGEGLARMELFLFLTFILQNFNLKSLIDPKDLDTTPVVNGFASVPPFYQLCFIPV
Description: as §1

[11] = molecular target: CYP2C9 (Homo sapiens, UniProt P11712); experiment: CYP enzyme panel; format: biochemical
CYP2C9, sequence (P11712 whole entry): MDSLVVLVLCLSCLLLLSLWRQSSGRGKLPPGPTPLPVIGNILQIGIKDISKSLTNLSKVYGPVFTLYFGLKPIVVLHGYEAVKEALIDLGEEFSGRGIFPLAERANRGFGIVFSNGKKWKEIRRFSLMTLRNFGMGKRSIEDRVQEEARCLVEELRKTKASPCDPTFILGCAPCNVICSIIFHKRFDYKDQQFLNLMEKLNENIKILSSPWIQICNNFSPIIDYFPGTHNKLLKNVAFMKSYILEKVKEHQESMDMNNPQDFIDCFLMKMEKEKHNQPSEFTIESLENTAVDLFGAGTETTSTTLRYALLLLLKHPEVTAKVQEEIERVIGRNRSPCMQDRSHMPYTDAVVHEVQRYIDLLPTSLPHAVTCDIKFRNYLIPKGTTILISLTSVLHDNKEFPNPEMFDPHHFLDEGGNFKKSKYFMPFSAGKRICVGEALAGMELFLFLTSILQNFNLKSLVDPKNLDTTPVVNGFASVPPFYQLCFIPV
Description: as §1

[12] = molecular target: CYP1A2 (Homo sapiens, UniProt P05177); experiment: CYP enzyme panel; format: biochemical
CYP1A2, sequence (P05177 whole entry): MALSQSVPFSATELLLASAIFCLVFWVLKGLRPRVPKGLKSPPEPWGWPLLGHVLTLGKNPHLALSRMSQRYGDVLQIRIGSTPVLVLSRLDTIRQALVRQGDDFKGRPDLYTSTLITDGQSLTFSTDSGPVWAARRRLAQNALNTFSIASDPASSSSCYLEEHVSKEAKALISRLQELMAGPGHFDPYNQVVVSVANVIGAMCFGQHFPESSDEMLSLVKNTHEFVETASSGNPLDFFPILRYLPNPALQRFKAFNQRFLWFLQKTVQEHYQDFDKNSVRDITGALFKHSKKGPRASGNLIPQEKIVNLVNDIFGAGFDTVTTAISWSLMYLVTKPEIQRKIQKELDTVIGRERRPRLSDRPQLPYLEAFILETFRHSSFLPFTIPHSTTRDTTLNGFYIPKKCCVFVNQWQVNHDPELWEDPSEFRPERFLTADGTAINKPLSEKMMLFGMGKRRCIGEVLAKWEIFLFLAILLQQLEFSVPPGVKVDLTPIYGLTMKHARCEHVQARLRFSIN
Description: as §1

[13] = molecular target: T1, recombinant human TDO (hTDO) (Homo sapiens, UniProt P48775); experiment: biochemical
T1 sequence (P48775 whole entry): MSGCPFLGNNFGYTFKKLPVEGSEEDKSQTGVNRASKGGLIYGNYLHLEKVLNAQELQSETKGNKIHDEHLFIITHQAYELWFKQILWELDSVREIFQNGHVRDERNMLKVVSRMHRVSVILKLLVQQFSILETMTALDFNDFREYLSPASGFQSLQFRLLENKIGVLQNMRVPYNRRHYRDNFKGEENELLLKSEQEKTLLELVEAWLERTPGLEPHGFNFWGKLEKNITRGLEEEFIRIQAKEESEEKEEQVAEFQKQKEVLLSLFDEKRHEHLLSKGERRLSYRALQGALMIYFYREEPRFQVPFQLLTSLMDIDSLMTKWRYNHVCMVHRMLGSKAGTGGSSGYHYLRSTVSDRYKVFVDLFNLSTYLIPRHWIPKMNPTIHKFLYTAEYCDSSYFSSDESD

[14] = molecular target: T1, recombinant human TDO (hTDO)
[15] = po, 50 mg, 5‐day p.o., 50 mg∙kg^−1
[16] = po, 50 mg, single p.o., 50 mg∙kg^−1
[17] = po, 100 mg, 5‐day p.o., 100 mg∙kg^−1
[18] = po, 100 mg, single p.o., 100 mg∙kg^−1

In the case of `Fc1ccc2c(/C=C/c3nnn[nH]3)c[nH]c2c1` [LM10, reference compound], the “potency in hTDO‐overexpressing HEK‐293 cells” value [1] is given as “high‐nanomolar potent inhibitor”, the pIC50 [2] is given as 4.62 and the inhibition at 0.6 µM ([3]; HEK293, read-out: inhibition HEK‐hIDO1) is given as under 20%. It also gave a bioavailability ([4]; 50 mg/kg, single p.o. 50 mg∙kg^−1 compared with i.v. 10 mg∙kg^−1) of 63%, an AUC ([4]; iv, 10 mg, 10 mg∙kg^−1) of 985 µM·h and a Cmax ([4]; iv, 10 mg, 10 mg∙kg^−1) of 427 µM. It also gave a half-life ([4]; iv, 10 mg, 10 mg∙kg^−1) of 1.77 h, a Kp ([4]; po, 50 mg) of 0.006 and a Kp at 5 days ([4]; po, 50 mg) of 0.01. The AUC [4, 15] was 2360 µM·h, the AUC [4, 16] was 3100 µM·h and the Cmax [4, 15] was 391 µM. It also gave a Cmax [4, 16] of 688 µM, a Kp uu [4, 15] of 0.02 and a Kp uu [4, 16] of 0.012. The half-life [4, 15] was 2.35 h, the half-life [4, 16] was 3.09 h and the AUCbrain ([4]; 5‐day p.o., 50 mg∙kg^−1) was 23.8 µM·h. The “F (oral bioavailability)” value ([4]; single p.o. 50 mg∙kg^−1 compared with i.v. 10 mg∙kg^−1) was 63.1%, the AUCbrain ([4]; single p.o., 50 mg∙kg^−1) was 18.5 µM·h and the “Trp levels in plasma and brain compared to vehicle” value ([5]; single p.o. 50 mg·kg^−1) was “no increase”. For the same compound, the “Kyn levels in plasma” value ([5]; single p.o. 50 mg·kg^−1, 0.25 h P < 0.01, 0.5 h P < 0.05) was “only the initial decrease in Kyn levels was found to be significant”.
For `C[C@@H](CO)NC(=O)c1ccc(-c2c[nH]c3cc(F)ccc23)cc1` [NTRC 3531‐0], the IC50 ([3]; cell-based assay, read-out: Potency (IC50) HEK‐hIDO1 (converted)) was 20.7 µM, the bioavailability ([4]; 100 mg/kg, single p.o. 100 mg∙kg^−1 compared with single i.v. 10 mg∙kg^−1) was 22% and the AUC ([4]; iv, 10 mg, 10 mg∙kg^−1) was 93.2 µM·h. The Cmax ([4]; iv, 10 mg, 10 mg∙kg^−1) was 56.5 µM, the half-life ([4]; iv, 10 mg, 10 mg∙kg^−1) was 0.903 h and the Kp ([4]; po, 100 mg) was 0.41. It also gave a Kp at 5 days ([4]; po, 100 mg) of 0.37, an AUC [4, 17] of 210 µM·h and an AUC [4, 18] of 207 µM·h. The Cmax [4, 17] was 33.2 µM, the Cmax [4, 18] was 37.5 µM and the Kp uu [4, 17] was 0.067. For the same compound, the Kp uu [4, 18] was 0.074, the half-life [4, 17] was 3.13 h and the half-life [4, 18] was 2.49 h. The AUCbrain ([4]; 5‐day p.o., 100 mg∙kg^−1) was 77.0 µM·h, the “F (oral bioavailability)” value ([4]; single p.o. 100 mg∙kg^−1 compared with single i.v. 10 mg∙kg^−1) was 22.3% and the AUCbrain ([4]; single p.o., 100 mg∙kg^−1) was 84.5 µM·h. It also gave a pIC50 [6] of under 4.50, a pIC50 [7] of under 4.50 and a pIC50 [8] of under 4.50. The pIC50 [9] was 4.79, the pIC50 [10] was under 4.50 and the pIC50 [11] was under 4.50. For the same compound, the pIC50 [12] was under 4.50, the pIC50 [13] was 6.31 and the “selectivity for hTDO over hIDO1, biochemical assays” value [14] was “more than 60 times”. The “Kyn levels in plasma at early timepoints” value ([5]; single p.o. 100 mg·kg^−1, 0.25 and 0.5 h, no statistical significance) was “slightly decreased”, the “Kyn levels in plasma, subsequent timepoints” value ([5]; single p.o. 100 mg·kg^−1, 1 and 2 h, P < 0.05) was “increased” and the “concentration of Trp in plasma compared to vehicle” value ([5]; single p.o. 100 mg·kg^−1, 1 h P < 0.01, 2 h P < 0.0001, 7 h P < 0.01) was “increase”. The “Kyn levels in brain” value ([5]; single p.o. 100 mg·kg^−1, 12 h P < 0.01, 24 h P < 0.05) was “increased” and the “concentration of Trp in brain compared to vehicle” value ([5]; single p.o. 100 mg·kg^−1, P < 0.0001 at 1, 12 and 24 h) was “increase”.
